In patent publication US7601501B2, “Controlling osteogenesis by inhibition of osteogenic suppressors” (The Scripps Research Institute, priority 2006, dated 2009):
“Also recorded” adds a separate entry of the source.

Key:
[1] = system: human mesenchymal stem cells (hMSCs); test: Compound treatment: adipogenic differentiation / cell fate switch of hMSCs; format: cell-based; conditions: for differentiation of hMSCs into mature adipocytes: combined treatment with dexamethasone; for adipogenic differentiation of hMSCs promoted by compound: especially in the presence of dexamethasone (DEX); for cell fate switch from osteogenic to adipogenic: hMSCs treated with the OS media
Method: Cells were rinsed with PBS twice, fixed in 10% formalin solution for 20 minutes, rinsed with PBS twice and dH2O once, washed with propylene glycol for 5 minutes, and stained with Oil red in propylene glycol (I2722A, Newcomer Supply) for 30 minutes. Cells were then washed with 85% propylene glycol for 5 minutes, rinsed with dH2O 3 times and preserved in 50% glycerol.
(§1) 8-CPT-cAMP, Na (cat# 116812), 5-Iodotubercidin (cat# 407900), Prostaglandin E2 (PGE2, cat# 538904), SB 202190 (cat# 559388) and U0126 (cat# 662005) were purchased from Calbiochem; N6,2′-O-Dibutyryl-cAMP (cat# D0260-5MG), forskolin (cat# F6886), ascorbic acid 2-phosphate (cat# 49752-10G), β-glycerophosphate (G-6251), dexamethasone (D8893), 3-isobutyl-1-methylxanthine (IBMX, I5879) and Insulin (I 9278) were purchased from Sigma/Aldrich/Fluka.
(§2) Since the targeted genes are all positively involved in intracellular cAMP signaling, we tested the effect of two compounds of opposing function on cAMP production on osteogenic differentiation of hMSCs, ADK inhibitor 5-iodotubercidin and ADCY activator forskolin (Cottam, H. B. et al., J Med Chem 36:3424-3430 (1993); de Souza, N. J. et al., Med Res Rev 3:201-219 (1983)). […] ATP has been shown as a ligand for P2RY11 receptor (Communi et al., 1997). […] The present observations are consistent with the conclusion that […] in hMSCs, and vice versa.

[2] = system: human mesenchymal stem cells (hMSCs); test: Compound treatment: OS-induced osteogenic differentiation of hMSCs (ALP / alizarin red staining); format: cell-based; conditions: for osteogenic effect of the OS media on hMSCs: compound combined with OS treatment, ALP and/or alizarin red staining
Method: as §1, §2

[3] = system: human mesenchymal stem cells (hMSCs); test: Alizarin red staining for calcium phosphate deposits (ECM mineralization, bone cell maturation); format: cell-based; conditions: for intensity of alizarin red staining (bone cell maturation), 3+9OS: OS started three days after siRNA transfection and continued for 9 days
Method: Cells were rinsed with PBS twice, stained in alizarin red solution (cat# vw3611-2, VWR) for 8 minutes at room temperature, washed with PBS again, fixed in 10% formalin solution (cat# HT-5014, Sigma) for 20 minutes, then rinsed with water and air dried.
Bone cell maturation is accompanied by extracellular matrix (ECM) mineralization (John Bilezikian et al., Principles of bone biology, Vol 1, 2nd edn: Academic Press) (2002)). […] […] These observations are consistent with the conclusion that the targeted genes of the ten effective hit siRNAs not only play inhibitory roles in osteogenic specification of hMSCs, but also in bone cell maturation. […] Furthermore, in osteoporotic patients, the number of adipocytes was increased in the marrow, implying a change of cell fate disposition from osteoblast lineage to adipocyte lineage (Justesen, J. et al., Biogerontology 2:165-171 (2001); Meunier, P. et al., Clin Orthop Relat Res 80:147-154 (1971)). We therefore examined the effect of our hit siRNAs on adipogenic differentiation of hMSCs by combined treatment with an adipogenic inducing cocktail (100 μg/ml IBMX, 1 μM DEX and 10 μg/ml insulin).

CREB = test: Western blot of phospho-CREB in transfected hMSCs; format: cell-based, human; conditions: 3 days after transfection, compared to siCon treated or untreated
Method: Cell lyses buffer contains 20 mM Tris pH8.0, 1 mM EDTA, 150 mM NaCl and 0.5% NP-40, and before usage, protease inhibitor cocktail (Cat# p8340, Sigma, 1:100 dilution) and phosphatase inhibitor cocktail 2 (Cat# p5726, sigma, 1:100 dilution) were added. Proteins (60 μg/well) were separated in 12% Novex Tris-Glycine gel (Cat# EC6008 box, Invitrogen) and transferred to Nitrocellulose membrane (Cat# LC2001, Invitrogen) using the XCell II blot module system (Cat# EI9051, Invitrogen). The membrane was blocked in 5% milk/PBST for 1 hour at room temperature, incubated over night at 4 degree with primary antibody, washed 3 times with PBST (0.05% Tween 20 in PBS), followed by one hour incubation with secondary antibody in 5% milk/PBST and 3 times wash with PBST at room temperature. For antibody against pCREB however, PBST was substituted with PBS in all steps except for the last one. Antibody-bound proteins were detected utilizing ECL Western blotting detection reagent (Amersham Biosciences).
Anti-phospho-CREB was purchased from Upstate Biotechnology (cat# 06-519); Anti-phospho-p38 was purchased from Cell signaling technology (cat# 9910).
To find out whether CREB (cAMP Responding Element Binding protein), a common downstream effector of cAMP signaling pathway, is involved in mediating cAMP signaling controlled differentiation of hMSCs, we checked the expression level of the active form of CREB proteins in cells 3 days after siP2RY11, siADK, siGNAS, siSLC12a2 or siCon transfection. […] To further examine the role of CREB in osteogenesis and adipogenesis, a synthetic 24-mer CRE decoy oligonucleotide that can compete with endogenous CRE enhancers for binding proteins was transfected into hMSCs (Park, Y. G. et al., J Biol Chem 274:1573-1580 (1999)), which were then subjected to the treatment of osteogenic or adipogenic induction media.

Molecule: Nc1ncnc2c1nc(Sc1ccc(Cl)cc1)n2[C@@H]1O[C@@H]2COP(=O)(O)O[C@H]2[C@H]1O [8-CPT-cAMP]
- differentiation of hMSCs into mature adipocytes [1]: sufficient to differentiate hMSCs into mature adipocytes
- adipogenic differentiation of hMSCs promoted by compound [1]: promoted hMSCs to undergo adipogenic differentiation
- cell fate switch from osteogenic to adipogenic [1]: could switch cell fate commitment from osteogenic to adipogenic
- cell fate switch from osteogenic to adipogenic ([1]; listed as CPT-cAMP): could switch cell fate determination from osteogenic to adipogenic differentiation

Molecule: Nc1ncnc2c1ncn2[C@@H]1O[C@H](COP(=O)(O)OP(=O)(O)OP(=O)(O)O)[C@@H](O)[C@H]1O [ATP]
- siP2RY11 and siSLC12a2 induced osteogenesis in combination with OS (ALP staining) ([2]; OS and ATP added on the third day after siRNA transfection, continued for a week): dosage-dependent inhibitory effect
- osteogenic effect of the OS media on hMSCs [2]: inhibited; also recorded: dosage-dependent inhibitory effect
- number of cells undergoing adipogenic differentiation ([1]; dosage dependent manner): slightly increases

Molecule: CCCC(=O)Nc1ncnc2c1ncn2[C@@H]1O[C@@H]2COP(=O)(O)O[C@H]2[C@H]1OC(=O)CCC [DB-cAMP, N6,2′-dibutyryl-cAMP]
- differentiation of hMSCs into mature adipocytes [1]: sufficient to differentiate hMSCs into mature adipocytes
- adipogenic differentiation of hMSCs promoted by compound [1]: promoted hMSCs to undergo adipogenic differentiation

Molecule: CC(C)Cn1c(=O)n(C)c(=O)c2[nH]cnc21 [IBMX, 3-isobutyl-1-methylxanthine]
- adipogenic differentiation of hMSCs promoted by compound [1]: promoted hMSCs to undergo adipogenic differentiation
- cell fate switch from osteogenic to adipogenic [1]: could switch cell fate determination from osteogenic to adipogenic differentiation

Molecule: COc1cccc(-c2cc(=O)c3ccccc3o2)c1N [PD98059]
- osteogenic effect of the OS media on hMSCs [2]: inhibited the osteogenic inducing effect of OS

Molecule: CCCCC[C@H](O)/C=C/[C@H]1[C@H](O)CC(=O)[C@@H]1C/C=C\CCCC(=O)O [PGE2, Prostaglandin E2]
- cell fate switch from osteogenic to adipogenic [1]: could switch cell fate determination from osteogenic to adipogenic differentiation

Molecule: Oc1ccc(-c2nc(-c3ccncc3)c(-c3ccc(F)cc3)[nH]2)cc1 [SB202190]
- osteogenic effect of the OS media on hMSCs [2]: inhibited the osteogenic inducing effect of OS

Molecule: CCCAGGUCUCCGAUGAACU (siRNA; listed as RNA, chemistry not fully specified) [siBCL212, siRNA targeting BCL2-like 2]
- intensity of alizarin red staining (bone cell maturation), 3+9OS [3]: modest enhancement

Molecule: CCCGAAAACAUUGCUAGCA (siRNA; listed as RNA, chemistry not fully specified) [siGBDR1, siRNA targeting putative glialblastoma cell differentiation-related]
- intensity of alizarin red staining (bone cell maturation), 3+9OS [3]: dramatically enhanced

Molecule: CCUCUUCGUGGCUACAUCU (siRNA; listed as RNA, chemistry not fully specified) [siSLC12a2, siRNA targeting solute carrier family 12, member 2]
- intensity of alizarin red staining (bone cell maturation), 3+9OS [3]: dramatically enhanced
- level of pCREB protein (Western blot) (CREB): increased

Molecule: GCCACACAAAGCAGCAACA (siRNA; listed as RNA, chemistry not fully specified) [siADK, siRNA targeting adenosine kinase]
- intensity of alizarin red staining (bone cell maturation), 3+9OS [3]: dramatically enhanced
- intensity of alizarin red staining, sequential siRNA then OS ([3]; siRNA initial 2-4 days followed by OS (2+6OS, 3+5OS, 4+4OS), vs siCon): clearly enhanced the intensity of alizarin red staining; also recorded: enhancing effect
- level of pCREB protein (Western blot) (CREB): increased

Molecule: GGAGAUCAACAAGCAUUCA (siRNA; listed as RNA, chemistry not fully specified) [siADCY8, siRNA targeting adenylate cyclase 8]
- intensity of alizarin red staining (bone cell maturation), 3+9OS [3]: weak enhancement

Molecule: UCGAAGAUUGAGGACUACU (siRNA; listed as RNA, chemistry not fully specified) [siGNAS, siRNA targeting GNAS complex locus]
- intensity of alizarin red staining (bone cell maturation), 3+9OS [3]: dramatically enhanced
- level of pCREB protein (Western blot) (CREB): increased

Molecule: UGCCAAAGAGGAUGUACAU (siRNA; listed as RNA, chemistry not fully specified) [siTBX3, siRNA targeting T-box 3 (ulnar mammary syndrome)]
- intensity of alizarin red staining (bone cell maturation), 3+9OS [3]: no significant effect

Molecule: UGCGAGCCAAGAUGGACAA (siRNA; listed as RNA, chemistry not fully specified) [siKCNT1, siRNA targeting potassium channel, subfamily T, member 1]
- intensity of alizarin red staining (bone cell maturation), 3+9OS [3]: dramatically enhanced

Molecule: UGCGGGUGCUCAACGUGGA (siRNA; listed as RNA, chemistry not fully specified) [siP2RY11, siRNA targeting purinergic receptor P2Y, G-protein coupled, 11]
- intensity of alizarin red staining (bone cell maturation), 3+9OS [3]: dramatically enhanced
- level of pCREB protein (Western blot) (CREB): increased

Molecule: UGUGCUACACAGUCAUUAC (siRNA; listed as RNA, chemistry not fully specified) [siBIRC4, siRNA targeting baculoviral IAP repeat-containing 4]
- intensity of alizarin red staining (bone cell maturation), 3+9OS [3]: weak enhancement
